As usually defined, the mortality is the percentage killed.

In ChEMBL document CHEMBL3045290, “Novel salicylamide derivatives incorporating neonicotinoid pharmacophore: design, synthesis, characterization, and biological evaluation” (2013) one finds mortality data, which are given here for four compounds.

Type in all cases: functional
For assay [1], the system named is Helicoverpa armigera. Description: Insecticidal activity against Helicoverpa armigera fed on artificial diet containing compound assessed as mortality at 250 ug/ml after 96 hr.
The subject of assay [2] is Plutella xylostella. Put plainly: Insecticidal activity against Plutella xylostella (diamondback moth) fed on artificial diet containing compound assessed as mortality at 500 ug/ml after 96 hr.
Assay [3] concerns Plutella xylostella. Put plainly: Insecticidal activity against Plutella xylostella (diamondback moth) fed on artificial diet containing compound assessed as mortality at 125 ug/ml after 96 hr.
In assay [4] the test system is Plutella xylostella. Put plainly: Insecticidal activity against Plutella xylostella (diamondback moth) fed on artificial diet containing compound assessed as mortality at 250 ug/ml after 96 hr.
For assay [5], the system named is Plutella xylostella. Put plainly: Insecticidal activity against Plutella xylostella (diamondback moth) fed on artificial diet containing compound assessed as mortality at 31.25 ug/ml after 96 hr.
The subject of assay [6] is Helicoverpa armigera. Put plainly: Insecticidal activity against Helicoverpa armigera fed on artificial diet containing compound assessed as mortality at 31.25 ug/ml after 96 hr.
For assay [7], the system named is Helicoverpa armigera. Description: Insecticidal activity against Helicoverpa armigera fed on artificial diet containing compound assessed as mortality at 62.5 ug/ml after 96 hr.
Assay [8] relates to Plutella xylostella. Put plainly: Insecticidal activity against Plutella xylostella (diamondback moth) fed on artificial diet containing compound assessed as mortality at 62.5 ug/ml after 96 hr.
In assay [9] the test system is Helicoverpa armigera. Put plainly: Insecticidal activity against Helicoverpa armigera fed on artificial diet containing compound assessed as mortality at 125 ug/ml after 96 hr.
Assay [10] has as its system Plutella xylostella. Description: Insecticidal activity against Plutella xylostella (diamondback moth) fed on artificial diet containing compound assessed as mortality at 1000 ug/ml after 96 hr.
Assay [11] deals with Helicoverpa armigera. Put plainly: Insecticidal activity against Helicoverpa armigera fed on artificial diet containing compound assessed as mortality at 1000 ug/ml after 96 hr.
Assay [12] relates to Helicoverpa armigera. Description: Insecticidal activity against Helicoverpa armigera fed on artificial diet containing compound assessed as mortality at 500 ug/ml after 96 hr.

For the compound `CC(C)NC(=O)c1ccccc1OCc1ccc(Cl)nc1`, the mortality at 250 µg/mL in the assay on Helicoverpa armigera [1] turned out to be 0%; in the assay with Plutella xylostella [4], 100%. Also, the mortality at 500 µg/mL was found to be 100% with Plutella xylostella [2] and 41% in the assay with Helicoverpa armigera [12]. For the same compound, the mortality at 125 µg/mL in the assay on Plutella xylostella [3] is 41%; in the assay on Helicoverpa armigera [9], 0%. Also, the mortality at 31.25 µg/mL in the assay with Plutella xylostella [5] and with Helicoverpa armigera [6] was 0% throughout. Further, the mortality at 62.5 µg/mL in the assay with Helicoverpa armigera [7] and with Plutella xylostella [8] was 0% each time. Further, the mortality at 1000 µg/mL came to 100% in the assay with Plutella xylostella [10] and 41% in the assay on Helicoverpa armigera [11].

Turning to `O=C(c1ccccc1OCc1ccc(Cl)nc1)N1CCOCC1`, the mortality at 250 µg/mL in the assay with Helicoverpa armigera [1] and with Plutella xylostella [4] was 0% in each case. In addition, the mortality at 500 µg/mL in the assay on Plutella xylostella [2] is 0%; in the assay with Helicoverpa armigera [12], 41%. Moreover, the mortality at 125 µg/mL in the assay with Plutella xylostella [3] and in the assay with Helicoverpa armigera [9] was 0% each time. Further, the mortality at 31.25 µg/mL in the assay with Plutella xylostella [5] and in the assay with Helicoverpa armigera [6] was 0% in each case. In addition, the mortality at 62.5 µg/mL in the assay with Helicoverpa armigera [7] and in the assay with Plutella xylostella [8] was 0% in each case. Moreover, the mortality at 1000 µg/mL amounted to 41% in the assay on Plutella xylostella [10] and 100% in the assay with Helicoverpa armigera [11].

For the compound `O=C(Nc1cc(C(F)(F)F)cc(C(F)(F)F)c1)c1ccccc1OCc1ccc(Cl)nc1`, the mortality at 250 µg/mL with Helicoverpa armigera [1] and with Plutella xylostella [4] was 0% in each case. For the same compound, the mortality at 500 µg/mL with Plutella xylostella [2] and with Helicoverpa armigera [12] was 0% in each case. Moreover, the mortality at 125 µg/mL with Plutella xylostella [3] and in the assay on Helicoverpa armigera [9] was 0% in each case. Moreover, the mortality at 31.25 µg/mL with Plutella xylostella [5] and in the assay with Helicoverpa armigera [6] was 0% each time. Further, the mortality at 62.5 µg/mL in the assay on Helicoverpa armigera [7] and in the assay with Plutella xylostella [8] was 0% in each case. Further, the mortality at 1000 µg/mL in the assay on Plutella xylostella [10] and with Helicoverpa armigera [11] was 0% in each case.

Take `N#CCN(C(=O)c1ccccc1OCc1ccc(Cl)nc1)c1ccccc1`: the mortality at 250 µg/mL in the assay on Helicoverpa armigera [1] amounted to 41%; in the assay with Plutella xylostella [4], 0%. Also, the mortality at 500 µg/mL was found to be 0% in the assay on Plutella xylostella [2] and 81% in the assay with Helicoverpa armigera [12]. For the same compound, the mortality at 125 µg/mL amounted to 0% in the assay with Plutella xylostella [3] and 41% in the assay with Helicoverpa armigera [9]. In addition, the mortality at 31.25 µg/mL in the assay on Plutella xylostella [5] and in the assay with Helicoverpa armigera [6] was 0% each time. The mortality at 62.5 µg/mL in the assay on Helicoverpa armigera [7] and with Plutella xylostella [8] was 0% each time. Further, the mortality at 1000 µg/mL in the assay on Plutella xylostella [10] was 0%; with Helicoverpa armigera [11], 100%.
